From patent US11389466B2 (priority 2017, dated 2022)
Several values for one entry are separate records, joined by “and”; a condition that tells them apart may be missing. Equal values may be shown once. Read-outs that look alike come from different tables or passages of the source.

Columns and labels:
AFL lectin = AFL lectin (Aspergillus fumigatus, UniProt Q4WW81); test: biochemical; format: binding; details: for Stoichiometry: amount of ligand bound to a single protein; for β (β-factor, relative potency per ligand): β=(Kd)monovalent/[(Kd)multivalent×Valency], calculated from methylfucoside
AFL lectin, sequence (Q4WW81 whole entry): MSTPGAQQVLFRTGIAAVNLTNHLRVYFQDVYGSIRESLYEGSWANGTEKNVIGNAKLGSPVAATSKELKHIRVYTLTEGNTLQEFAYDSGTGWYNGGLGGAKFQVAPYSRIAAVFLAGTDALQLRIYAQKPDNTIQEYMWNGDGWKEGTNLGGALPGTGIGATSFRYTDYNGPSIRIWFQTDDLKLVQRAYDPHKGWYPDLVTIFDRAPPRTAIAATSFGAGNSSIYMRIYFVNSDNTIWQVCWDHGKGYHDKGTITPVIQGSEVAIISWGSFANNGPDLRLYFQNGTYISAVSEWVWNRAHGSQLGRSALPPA

[1] = tested on: Aspergillus fumigatus conidia (adhesion on pneumocytes A549); format: cell-based
[2] = Table 2, second batch of purified AFL protein

C[C@@H]1O[C@@H](OCc2cn(CCOCCOCCOCCn3cc(CO[C@@H]4O[C@@H](C)[C@@H](O)[C@@H](O)[C@@H]4O)nn3)nn2)[C@@H](O)[C@H](O)[C@@H]1O [Compound 24]
Kd (AFL lectin): 3.8 ± 0.3 µM
−TΔS (AFL lectin; Table 1, first AFL batch): 46 ± 3 kJ/mol
−ΔG (AFL lectin; Table 1, first AFL batch): 31 ± 0.2 kJ/mol
−ΔH (AFL lectin; Table 1, first AFL batch): 77 ± 3 kJ/mol
Stoichiometry (AFL lectin; Table 1, first AFL batch): 2.12 and 2.12 ± 0.03
β (β-factor, relative potency per ligand) (AFL lectin): 68
decrease of the adhesion of the conidia ([1]; 100 μM in fucose equivalent): 37%

C[C@@H]1O[C@@H](OCc2cn(CCOCCOCCOCCOCCOCCOCCOCCOCCOCCOCCOCCn3cc(CO[C@@H]4O[C@@H](C)[C@@H](O)[C@@H](O)[C@@H]4O)nn3)nn2)[C@@H](O)[C@H](O)[C@@H]1O [Compound 26]
Kd (AFL lectin): 0.55 µM
−TΔS (AFL lectin; Table 1, first AFL batch): 36 ± 0.6 kJ/mol
−ΔG (AFL lectin; Table 1, first AFL batch): 35.9 ± 0.9 kJ/mol
−ΔH (AFL lectin; Table 1, first AFL batch): 74 ± 6 kJ/mol
Stoichiometry (AFL lectin; Table 1, first AFL batch): 2.35 and 2.35 ± 0.31
β (β-factor, relative potency per ligand) (AFL lectin): 470
residual adhesion of the conidia on the pneumocytes ([1]; 10 μM in fucose equivalent): 76%

CC1OC(OCCOCCOCc2cn(CC3OC4OC5C(Cn6cc(COCCOCCOC7OC(C)C(O)C(O)C7O)nn6)OC(OC6C(Cn7cc(COCCOCCOC8OC(C)C(O)C(O)C8O)nn7)OC(OC7C(Cn8cc(COCCOCCOC9OC(C)C(O)C(O)C9O)nn8)OC(OC8C(Cn9cc(COCCOCCOC%10OC(C)C(O)C(O)C%10O)nn9)OC(OC9C(Cn%10cc(COCCOCCOC%11OC(C)C(O)C(O)C%11O)nn%10)OC(OC3C(O)C4O)C(O)C9O)C(O)C8O)C(O)C7O)C(O)C6O)C(O)C5O)nn2)C(O)C(O)C1O (stereo not drawn) [Compound 29]
Kd (AFL lectin; Table 1, first AFL batch): 0.6 µM
−TΔS (AFL lectin; Table 1, first AFL batch): 125.5 ± 0.6 kJ/mol
−ΔG (AFL lectin; Table 1, first AFL batch): 35.5 ± 0.1 kJ/mol
−ΔH (AFL lectin; Table 1, first AFL batch): 161 ± 1 kJ/mol
Stoichiometry (AFL lectin; Table 1, first AFL batch): 1.01 ± 0.02
Kd (AFL lectin; [2]): 0.53 ± 0.04 µM
N (stoichiometry) (AFL lectin; [2]): 1.20 ± 0.09
−TΔS (AFL lectin; [2]): 136.1 ± 15.1 kJ/mol
−ΔG (AFL lectin; [2]): 35.9 ± 0.2 kJ/mol
−ΔH (AFL lectin; [2]): 171.8 ± 15.3 kJ/mol
Kd values (in words) (AFL lectin; first AFL batch): sub-micromolar range
enthalpic contribution, times higher than the reference monovalent compound 33 (AFL lectin; first AFL batch): 2.7
increase of the −TΔS factor versus the reference monovalent compound (AFL lectin; first AFL batch): 3.3
β (β-factor, relative potency per ligand) (AFL lectin): 144
formation of spore agglomerates (microscope observation) ([1]; A. fumigatus spores, compound 29 at 10 μM): formation of A. fumigatus spore agglomerates

CC1OC(OCCOCCOCCOCCOCc2cn(CC3OC4OC5C(Cn6cc(COCCOCCOCCOCCOC7OC(C)C(O)C(O)C7O)nn6)OC(OC6C(Cn7cc(COCCOCCOCCOCCOC8OC(C)C(O)C(O)C8O)nn7)OC(OC7C(Cn8cc(COCCOCCOCCOCCOC9OC(C)C(O)C(O)C9O)nn8)OC(OC8C(Cn9cc(COCCOCCOCCOCCOC%10OC(C)C(O)C(O)C%10O)nn9)OC(OC9C(Cn%10cc(COCCOCCOCCOCCOC%11OC(C)C(O)C(O)C%11O)nn%10)OC(OC3C(O)C4O)C(O)C9O)C(O)C8O)C(O)C7O)C(O)C6O)C(O)C5O)nn2)C(O)C(O)C1O (stereo not drawn) [Compound 30]
Kd (AFL lectin; Table 1, first AFL batch): 0.18 µM
−TΔS (AFL lectin; Table 1, first AFL batch): 181 ± 8 kJ/mol
−ΔG (AFL lectin; Table 1, first AFL batch): 38.4 ± 0.2 kJ/mol
−ΔH (AFL lectin; Table 1, first AFL batch): 220 ± 8 kJ/mol
Stoichiometry (AFL lectin; Table 1, first AFL batch): 0.77 ± 0.04
Kd (AFL lectin; [2]): 0.13 ± 0.01 µM
N (stoichiometry) (AFL lectin; [2]): 0.95 ± 0.02
−TΔS (AFL lectin; [2]): 169.4 ± 0.6 kJ/mol
−ΔG (AFL lectin; [2]): 39.3 ± 0.3 kJ/mol
−ΔH (AFL lectin; [2]): 208.9 ± 1.0 kJ/mol
Kd (AFL lectin; first AFL batch): 0.18 µM
Kd values (in words) (AFL lectin; first AFL batch): sub-micromolar range
enthalpic contribution, times higher than the reference monovalent compound 33 (AFL lectin; first AFL batch): 3.7
increase of the −TΔS factor versus the reference monovalent compound (AFL lectin; first AFL batch): 4.7
β (β-factor, relative potency per ligand) (AFL lectin): 479

C[C@@H]1O[C@@H](OCc2cn(CCOCCOCCOCCO)nn2)[C@@H](O)[C@H](O)[C@@H]1O [Compound 33, reference compound]
Kd (AFL lectin): 167 µM
−TΔS (AFL lectin; Table 1, first AFL batch): 38 ± 9 kJ/mol
−ΔG (AFL lectin; Table 1, first AFL batch): 22 ± 1 kJ/mol
−ΔH (AFL lectin; Table 1, first AFL batch): 60 ± 8 kJ/mol
Stoichiometry (AFL lectin; Table 1, first AFL batch): 4.0 ± 0.3
β (β-factor, relative potency per ligand) (AFL lectin): 3
anti-adhesive activity (in words) ([1]; concentrations of 1 and 10 μM in fucose equivalent): absence of anti-adhesive activity

CC1OC(OCc2cn(CCOCCOCCOCCSCC[Si]34O[Si]5(CCSCCOCCOCCOCCn6cc(COC7OC(C)C(O)C(O)C7O)nn6)O[Si]6(CCSCCOCCOCCOCCn7cc(COC8OC(C)C(O)C(O)C8O)nn7)O[Si](CCSCCOCCOCCOCCn7cc(COC8OC(C)C(O)C(O)C8O)nn7)(O3)O[Si]3(CCSCCOCCOCCOCCn7cc(COC8OC(C)C(O)C(O)C8O)nn7)O[Si](CCSCCOCCOCCOCCn7cc(COC8OC(C)C(O)C(O)C8O)nn7)(O4)O[Si](CCSCCOCCOCCOCCn4cc(COC7OC(C)C(O)C(O)C7O)nn4)(O5)O[Si](CCSCCOCCOCCOCCn4cc(COC5OC(C)C(O)C(O)C5O)nn4)(O6)O3)nn2)C(O)C(O)C1O (stereo not drawn) [Compound 40]
Kd (AFL lectin): 0.4 ± 0.07 µM
N (stoichiometry) (AFL lectin): 0.84 ± 0.02
−TΔS (AFL lectin): 216.8 ± 16.9 kJ/mol
−ΔG (AFL lectin): 36.6 ± 0.4 kJ/mol
−ΔH (AFL lectin): 252.9 ± 17.0 kJ/mol

CC1OC(OCc2cn(CC3OC4OC5C(Cn6cc(COC7OC(C)C(O)C(O)C7O)nn6)OC(OC6C(Cn7cc(COC8OC(C)C(O)C(O)C8O)nn7)OC(OC7C(Cn8cc(COC9OC(C)C(O)C(O)C9O)nn8)OC(OC8C(Cn9cc(COC%10OC(C)C(O)C(O)C%10O)nn9)OC(OC9C(Cn%10cc(COC%11OC(C)C(O)C(O)C%11O)nn%10)OC(OC3C(O)C4O)C(O)C9O)C(O)C8O)C(O)C7O)C(O)C6O)C(O)C5O)nn2)C(O)C(O)C1O (stereo not drawn) [Compound 44]
Kd (AFL lectin; [2]): 1.94 ± 0.5 µM
N (stoichiometry) (AFL lectin; [2]): 1.36 ± 0.01
−TΔS (AFL lectin; [2]): 90.4 ± 2.6 kJ/mol
−ΔG (AFL lectin; [2]): 32.7 ± 0.7 kJ/mol
−ΔH (AFL lectin; [2]): 122.9 ± 1.9 kJ/mol

OC[C@H]1O[C@@H]2O[C@H]3[C@H](O)[C@@H](O)[C@@H](O[C@H]4[C@H](O)[C@@H](O)[C@@H](O[C@H]5[C@H](O)[C@@H](O)[C@@H](O[C@H]6[C@H](O)[C@@H](O)[C@@H](O[C@H]7[C@H](O)[C@@H](O)[C@@H](O[C@H]1[C@H](O)[C@H]2O)O[C@@H]7CO)O[C@@H]6CO)O[C@@H]5CO)O[C@@H]4CO)O[C@@H]3CO [free α-cyclodextrine, α-cyclodextrine, reference compound]
affinity for the AFL lectin (in words) (AFL lectin): no affinity

CO[C@@H]1O[C@@H](C)[C@@H](O)[C@@H](O)[C@@H]1O [αMeFuc, methylfucoside, reference compound]
−TΔS (AFL lectin; Table 1, first AFL batch): 26.8 kJ/mol
−ΔG (AFL lectin; Table 1, first AFL batch): 16.9 kJ/mol
−ΔH (AFL lectin; Table 1, first AFL batch): 48 kJ/mol
Stoichiometry (AFL lectin; Table 1, first AFL batch): 5
Kd (AFL lectin; Table 1, first AFL batch, read-out: Kd): 517 µM
N (stoichiometry) (AFL lectin; [2]): 3.3 ± 0.42
−TΔS (AFL lectin; [2]): 41.7 ± 6.2 kJ/mol
−ΔG (AFL lectin; [2]): 22.6 ± 0.02 kJ/mol
−ΔH (AFL lectin; [2]): 64.3 ± 6.2 kJ/mol
Kd (AFL lectin; Table 2, second batch of purified AFL protein, read-out: Kd): 110 µM
